Experiments:
mTORC1 pathway (pS6) [1] = assay: pS6 immunoblot of striatum and heart after one week of oral dosing in N171-82Q HD mice; format: in vivo; conditions: N171-82Q mice, oral 160 mg/kg daily for one week
Method: The initial trial consisted in one week of oral dosing in 12 weeks old N171-82Q males. The chronic 6 weeks treatment (Veh n = 15, NV-5297 n = 14) took place from 6 to 12 weeks of age. The cardiac stress took place in animals from 10 to 12 weeks of age (Veh-Sal n = 9, NV-Sal n = 10, Veh-Iso n = 16, NV-Iso n = 11).
(§1) Specific regions of the brain and heart were homogenized using a Next Advance Bullet Blender Storm in Lysis Buffer (Cell lysis buffer: 1% Triton X-100, 50 mM HEPES pH 7.4, 100 mM sodium chloride, 2 mM EDTA, 10 mM Beta-glycerophosphate, 10 mM Sodium pyrophosphate, and 1 protease inhibitor) at 4°C. Lysates were cleared by centrifugation at 13,200 rpm at 4°C for 10 minutes. Equal amounts of total protein from each sample were denatured and, resolved by SDS-PAGE. Membranes were imaged using the LI-COR imaging system. Proteins levels are normalized to tubulin, actin or GAPDH levels and further normalized to vehicle treated mice for each tissue.
Supplementary file pone.0273710.s002.tiff: S2 Fig Activation of the mTORC1 pathway in mice striatum and heart after oral dosing with NV-5297. (A) Representative immunoblot for the phosphorylated (^S240/244pS6), S6 and actin or tubulin in the striatum and heart of N171-82Q wild-type (WT) mice or N171-82Q HD mice respectively collected 1 hour after the last dose of a week of oral dosing with vehicle (Veh) or NV-5297 (160 mg/kg; A). Quantification of levels of ^S240/244pS6 in the striatum (B) and the heart (C) normalized to loading control levels and further normalized to untreated WT mice. Data are presented as mean ± SEM. **P ≤ 0.01, ***P ≤ 0.001 and ****P ≤ 0.0001 (Kruskal-Wallis test with Dunn’s multiple comparison tests). (TIFF) Click here for additional data file.

mTORC1 pathway (pS6) [2] = assay: pS6 immunoblot of tissues after one oral dose in C57BL/6 mice; format: in vivo; conditions: single oral 160 mg/kg
Method: as §1
Fig 1 NV-5297 is a leucine analog activating the mTORC1 pathway in the brain and peripheral tissues. (A) NV-5297 chemical structure. Representative immunoblots of phosphorylated S6 (^S240/244pS6) from homogenized tissues from C57BL/6 mice orally dosed once with NV-5297 (160 mg/kg) and sacrificed 1 hour later (B) and quantification of the immunoblots normalized to loading controls and vehicle treated mice (n = 10 per treatment) (C). […]

[3] = system: mTORC1 pathway in striatum; assay: Chronic 6-week treatment: striatum immunoblots; format: in vivo, N171-82Q mice
Source text: Animals were sacrificed by live decapitation one hour after the last oral dosing. Whole hearts were excised, blot-dried and weighed on an analytical balance. The heart was bisected transversely and the apical halves was preserved for cardiomyocyte and fibrosis staining. Left tibias were isolated and measured with an electronic caliper. The brain left hemisphere was preserved for MSN size measurement. The brain right hemisphere was microdissected and the medial pre-frontal cortex, striatum, cortex, hippocampus and cerebellum were collected.
as §1
Fig 3 Activation of the mTORC1 pathway in the striatum following daily oral dosing of NV-5297. (A) Representative immunoblots of the striatum for normalized phosphorylated S6 [^S240/244pS6], S6, phosphorylated Akt [^S437pAkt], Akt, phosphorylated mTOR [^S2448pmTOR], mTOR, DARPP-32, phosphorylated 4E-BP1 [^Thr37/46p4E-BP1], 4E-BP1 and Actin from homogenized striatum isolated from N171-82Q males after 6 weeks of daily oral dosing of NV-5297 (160 mg/kg) or vehicle [Veh]. (B) Quantification of the immunoblots from homogenized striatum isolated 1 hour after the final oral dosing with NV-5297 (160 mg/kg; n = 14) normalized to loading control levels and further normalized to vehicle treated mice (n = 15). A significant Spearman correlation is present between pS6/S6 and DARPP32 levels. Data are presented as mean ± SEM. *P ≤ 0.05, ***P ≤ 0.001, ****P ≤ 0.0001 (one-tailed unpaired Student’s t-test [pmTOR/mTOR, DARPP-32], with a Welch’s correction [pS6/S6, p4E-BP1/4E-BP1], Mann-Whitney test [pAkt/Akt].

[4] = N171-82Q mice, 160 mg/kg daily 6 weeks
[5] = N171-82Q mice, 160 mg/kg daily 6 weeks, 1 hour after final dose

CC(C)(C[C@H](N)C(=O)O)C(F)(F)F [NV-5297, (S)-2-amino-5,5,5-trifluoro-4,4-dimethylpentanoic acid]
pS6 in heart relative to vehicle (mTORC1 pathway (pS6) [1]): increased
pS6 in striata relative to vehicle (mTORC1 pathway (pS6) [1]): increased
ratio of pS6 level in striatum and heart compared with age-matched WT mice (mTORC1 pathway (pS6) [1]): normalized
pS6 in brain regions relative to controls (mTORC1 pathway (pS6) [2]; sacrificed 1 hour later): increased pS6 in all regions sampled
pS6 in peripheral tissues relative to vehicle (mTORC1 pathway (pS6) [2]; tissues collected 1 hour later): increased pS6
striatal p4E-BP1/4E-BP1 [3, 4]: unchanged
striatal pAkt/Akt [3, 4]: unchanged
striatal pmTOR/mTOR [3, 4]: unchanged
striatal DARPP-32 [3, 5]: significantly elevated
striatal pS6 [3, 5]: significantly elevated
duration of mTORC1 pathway activation ([3]; NV-5297 daily treatment, response to reviewers): ~ 3 hours per day

Source: paper PMC9423655, “Huntington’s disease phenotypes are improved via mTORC1 modulation by small molecule therapy” (PLoS ONE, 2022)
